In patent publication EP0044443A1, “Cycloalkano-thiazolyloxamidic-acid derivatives, process for their preparation and pharmaceutical compositions containing them” (BASF Aktiengesellschaft, priority 1980, dated 1982):

What was measured:
[1] = tested on: passiven cutanen Anaphylaxie (PCA); experiment: Passive cutaneous anaphylaxis (PCA) in rats sensitised with ovalbumin antiserum; assay type: in vivo, Ratte; conditions: for inhibition in vivo at 1 mg/kg: ip, read-out: % Hemmung X ± SX; for inhibition in vivo at 1 mg/kg / % Hemmung X ± SX: intraperitoneal, 1 mg/kg test substance, mean ± SX; for mal wirksamer als die Vergleichsverbindung V1 / Hemmung der PCA Ratte R.W. (Relative Wirksamkeit) / ED50: oral administration; for Hemmung der PCA Ratte R.W. (Relative Wirksamkeit): relative to V1 = 1,00; for ED50: Rattus norvegicus, dose reducing diameter of dye spots by 50 % vs untreated controls, read-out: Hemmung der PCA Ratte ED 50 %
Experimental: Die antiallergische Wirkung wurde an Ratten getestet. Zur ' Prüfung wurde das Modell der passiven cutanen Anaphylaxie (PCA) verwendet.
Narkotisierte männliche Ratten (100 bis 140 g) werden durch intradermale Injektion (rasierte Rückenhaut) von 0,1 ml eines Ovalbumin-Antiserums sensibilisiert. Nach einer Sensibilisierungsperiode von ca. 48 Stunden erfolgt die Behandlung (intraperitoneale bzw. orale Applikation) mit unterschiedlichen Dosierungen (10 Tiere/Dosis) der Prüfsubstanzen. 15 bis 20 Minuten nach der Behandlung wird eine Antigen/Evansblau-Hischung (10 mg/kg Ovalbumin in 2 %iger Evansblau-Lösung) den Versuchstieren intravenös injiziert. 30 Minuten später werden die Tiere getötet, die Rückenhaut abgezogen und auf der inneren Oberfläche der Durchmesser der kreisförmigen Blaufärbung gemessen. Die Größe der Farbflecke unbehandelter Kontrolltiere ist standardisierbar. Antiallergisch wirksame Substanzen verkleinern dosisabhängig den Durchmesser der Farbflecke. Als ED 50 % wird die Dosis angegeben die im Vergleich zu medikamentös unbehandelten Kontrolltieren den Durchmesser der Farbflecke um 50 % herabsetzt.

[2] = Acute toxicity, rat, oral; conditions: in vivo, read-out: LD 50 Ratte p.o.
Text: (§1) Außer der antiallergischen Wirkung wurde die akute Toxizität an Gruppen von je 2 NMRI-Mäusen, Gewicht 20 bis 26 g, bei intraperitonealer Applikation und an je 2 Sprangue--Dawley-Ratten, Gewicht 120 bis 150 g, bei oraler Applikation ermittelt. Die Bestimmung der LD 50 erfolgte an Gruppen von je 10 NMRI-Mäusen, Gewicht 20 bis 26 g,nach intraperitonealer Applikation. Die Nachbeobachtungszeit betrug 14 Tage.

[3] = Acute toxicity, mouse, intraperitoneal; conditions: in vivo, ip, read-out: LD 50 Maus i.p.
Text: as §1

[4] = Water solubility (remark in synthesis example); assay type: physicochemical
[5] = Sprague-Dawley rats, oral, 14 days observation
[6] = NMRI mice, intraperitoneal, 14 days observation

| Compound | inhibition in vivo at 1 mg/kg ([1]; PCA rat) | Hemmung der PCA Ratte R.W. (Relative Wirksamkeit) [1] | LD50 at 336 h [2, 5] | ED50 [1] | also measured |
| --- | --- | --- | --- | --- | --- |
| CCOC(=O)C(=O)Nc1nc2c(s1)CCCCC2 [Beispiel 5, N-(Cycloheptano[1,2-d]thiazol-2-yl)oxamidsäureethylester] | 34 ± 6% | – | – | – | – |
| CCOC(=O)C(=O)Nc1nc2c(s1)C(C)(C)CC(C)(C)C2 [Beispiel 4, N-(5,5,7,7-Tetramethylcyclohexano[1,2-d]thiazol-2-yl)-oxamidsäureethylester] | 15 ± 3.5% | – | – | – | – |
| CCOC(=O)C(=O)Nc1nc2c(s1)CCCC2 [Beispiel 2, N-(Cyclohexano[1,2-d]thiazol-2-yl)-oxamidsäureethylester] | 61 ± 8.8% | 11,90 | – | – | LD50 at 336 h ([2]; po): > 2150 mg/kg; mal wirksamer als die Vergleichsverbindung V1 ([1]; PCA rat): 11.9; LD50 at 336 h [3]: 422 mg/kg |
| CC(C)(C)OC(=O)C(=O)Nc1nc2c(s1)CCCC2 [Beispiel 7] | 33 ± 7.9% | 3,65 | > 2150 mg/kg | 2.35 mg/kg | – |
| N-(Cyclohexano[1,2-d]thiazol-2-yl)-oxamidsäure-ethanol- aminsalz [Beispiel 8] | – | – | – | – | Wasserlöslichkeit [4]: gut wasserlöslichen; % Hemmung X ± SX ([1]; PCA rat): 73 ± 7,5% |
| CCOC(=O)C(=O)Nc1nc2c(s1)CCC2 [Beispiel 1, N-(Cyclopentano[1,2-d]thiazol-2-yl)-oxamidsäureethylester] | 25 ± 4.7% | 5,40 | > 2150 mg/kg | 1.59 mg/kg | LD50 at 336 h [3, 6]: ~464 mg/kg |
| N-(6-tert.-Butylcyclohexano[1,2-d]thiazol-2-yl)-oxamidsäureethylester [Beispiel 3] | – | – | – | – | % Hemmung X ± SX ([1]; PCA rat): 14 ± 4,1% |
| CCOC(=O)C(=O)Nc1nc2ccccc2s1 [V1, N-Benzthiazol-2-yl-oxamidsäureethylester, reference compound] | 26 ± 6.5% | 1,00 | > 2150 mg/kg | 8.6 mg/kg | LD50 at 336 h [3, 6]: ~464 mg/kg |
| O=C(O)C(=O)Nc1nc2c(s1)CCCC2 [Beispiel 6, N-(Cyclohexano[1,2-d]thiazol-2-yl)-oxamidsäure] | 63 ± 6.6% | 2,78 | – | 3.09 mg/kg | LD50 at 336 h ([2]; po): > 2150 mg/kg; mal wirksamer als die Vergleichsverbindung V1 ([1]; PCA rat): 2,8; LD50 at 336 h [3]: ~464 mg/kg |
| O=C(O)c1cc(=O)c2c(OCC(O)COc3cccc4oc(C(=O)O)cc(=O)c34)cccc2o1 [Cromolyne, reference compound] | 21 ± 3.6% | – | > 2150 mg/kg | 100 mg/kg | antiallergische Wirkung nach oraler Applikation ([1]; PCA rat, up to 100 mg/kg p.o.): unwirksam |
